Source: patent US20240245657A1, “THIADIAZOLIDINONES FOR THEIR USE IN THE TREATMENT OF LIMB-GIRDLE MUSCULAR DYSTROPHY” (CONSEJO SUPERIOR DE INVESTIGACIONES CIENTÍFICAS, priority 2021, published 2024)

What was measured:
GSK3 = conditions: low therapeutic dose of lithium (0.5 mM); cited from earlier work
β-catenin = assay: Western blot of total and active β-catenin in human primary myotubes (Wnt pathway activation); format: cell-based; conditions: day 8 of differentiation, 48 h; for active β-catenin: tideglusib 1.2 μM, LiCl 10 mM
Method: (§1) To obtain primary myoblasts, muscle biopsies were processed and cultured in monolayer according to the method described by Askanas (Neurology, 1975, 25, 58-67). To isolate the pure population of myoblasts and CD56-negative cells (CD56-), the protocol described previously (Jaka et al., Expert Reviews in Molecular Medicine, 2017, 19, e2) was used, using immunomagnetic separation based on the early presence of the surface marker CD56 (Miltenyi Biotec, 130-050-401).
(§2) Myoblasts were cultured in proliferation medium (DMEM, M-199, Insulin, Glutamine and penicillin-streptomycin) with 10% FBS and growth factors at 37° C. in 5% CO2 air incubator. When myoblasts reached confluence, the FBS concentration was reduced to 2% and growth factors were removed from the medium, promoting fusion and production of myotubes.
(§3) Tideglusib was provided by Dr. Ana Martínez (from The Center for Biological Research, CSIC). It was administered at 1.2 μM, whereas LiCI (Sigma-Aldrich, L7026) was used for comparative purposes at a final concentration of 10 mM. Tideglusib and LiCI were administered at the above referred concentrations to myotubes at eight days of differentiation, and tideglusib also to skin fibroblasts and to CD56-cells. Negative controls, in the case of tideglusib, were performed with DMSO (Fisher Scientific, BP-231). At 48 hours after drug administration, RNA and proteins were extracted.
(§4) Protein collection from muscle samples and cell cultures, as well as Western blot procedure, were performed as previously described (Jaka et al., Expert Reviews in Molecular Medicine, 2017, 19, e2).

RPS6 = assay: Western blot of P-RPS6 (Ser235/Ser236) in human primary myotubes (controls and LGMDR1 patients); format: cell-based; conditions: 48 h; for P-RPS6 (S235-S236), Western blot densitometry: LiCl 10 mM; for P-RPS6 (S235-S236), protein expression value relative to the same sample without treatment: tideglusib 1.2 μM
Method: as §1, §2, §3, §4

p70S6K = assay: Western blot of p70S6K and its phosphorylated forms in human primary myotubes (controls and LGMDR1 patients); format: cell-based; conditions: 48 h; for P-p70S6K (T389), protein expression value relative to the same sample without treatment / P-p70S6K (T421-S424), protein expression value relative to the same sample without treatment: tideglusib 1.2 μM
Method: as §1, §2, §3, §4

FRBZ gene, β1D integrin = conditions: primary myotubes, LiCl treatment; cited from earlier work
GSK3β [1] = conditions: low dose of LiCl treatment; cited from earlier work
[2] = tested on: CAPN3, FOS, ANOS1 and ITGB1BP2 genes; assay: Quantitative real-time PCR of deregulated genes in LGMDR1 myotubes; format: cell-based, human; conditions: 1.2 μM, 48 h
Method: Tideglusib was provided by Dr. Ana Martínez (from The Center for Biological Research, CSIC). It was administered at 1.2 μM, whereas LiCI (Sigma-Aldrich, L7026) was used for comparative purposes at a final concentration of 10 mM. Tideglusib and LiCI were administered at the above referred concentrations to myotubes at eight days of differentiation, and tideglusib also to skin fibroblasts and to CD56-cells. Negative controls, in the case of tideglusib, were performed with DMSO (Fisher Scientific, BP-231). At 48 hours after drug administration, RNA and proteins were extracted. RNA extraction from primary myoblast/myotubes was performed with an RNeasy Mini Kit (Qiagen). In the case of the muscle biopsies, which were snap frozen and stored at −80° C. until use, total RNA was obtained using an RNA-Plus Kit (QBiogene). The isolated RNA was reverse-transcribed to first-strand complementary DNA (cDNA) in a final volume of 50 μl using a High Capacity cDNA Reverse Transcription Kit (Applied Biosystems), according to the manufacturer's instructions. The expression levels of CAPN3, FOS, ITGB1BP2, ANOS1 and GAPDH genes in the samples were assessed by real-time quantitative PCR with TaqMan probes (Table Il below) using the ‘CFX384 Real-Time PCR Detection System’ (Bio-Rad).

CD56-cells = assay: Western blot of Wnt and mTOR pathway proteins in CD56- cells from muscle; format: cell-based, human; conditions: 1.2 μM, 48 h
Description: (§5) To obtain primary myoblasts, muscle biopsies were processed and cultured in monolayer according to the method described by […] (Neurology, 1975, 25, 58-67). To isolate the pure population of myoblasts and CD56-negative cells (CD56-), the protocol described previously (Jaka et al., Expert Reviews in Molecular Medicine, 2017, 19, e2) was used, using immunomagnetic separation based on the early presence of the surface marker CD56 (Miltenyi Biotec, 130-050-401). Tideglusib was provided by Dr. Ana Martínez (from The Center for Biological Research, CSIC). It was administered at 1.2 μM, whereas LiCI (Sigma-Aldrich, L7026) was used for comparative purposes at a final concentration of 10 mM. Tideglusib and LiCI were administered at the above referred concentrations to myotubes at eight days of differentiation, and tideglusib also to skin fibroblasts and to CD56-cells. Negative controls, in the case of tideglusib, were performed with DMSO (Fisher Scientific, BP-231). At 48 hours after drug administration, RNA and proteins were extracted. Protein collection from muscle samples and cell cultures, as well as Western blot procedure, were performed as previously described (Jaka et al., Expert Reviews in Molecular Medicine, 2017, 19, e2).

integrin β1D and melusin = assay: Western blot of structural (costamere) proteins in human myotubes; format: cell-based; conditions: 1.2 μM, 48 h
Method: as §5, with “130-050-401). Myoblasts were cultured in proliferation medium (DMEM, M-199, Insulin, Glutamine and penicillin-streptomycin) with 10% FBS and growth factors at 37° C. in 5% CO2 air incubator. When myoblasts reached confluence, the FBS concentration was reduced to 2% and growth factors were removed from the medium, promoting fusion and production of myotubes.” for “130-050-401).”, “Protein collection from muscle samples and cell cultures, as well as Western blot procedure, were performed as previously described (Jaka et al., Expert Reviews in Molecular Medicine, 2017, 19, e2).” left out

skin fibroblasts = assay: Western blot of Wnt and mTOR pathway proteins in skin fibroblasts; format: cell-based, human; conditions: 1.2 μM, 48 h
Method: Skin fibroblasts from healthy controls and from LGMDR1 patients were provided by Dr. Ana Aiastui (Biodonostia Health Research Institute, Cell Culture and Histology Platform). Cells were cultured in Dulbecco's modified Eagle's medium (DMEM, Gibco, 41966-029) supplemented with 10% FBS (Gibco, 10270-106) and 1% penicillin-streptomycin (Gibco, 15140-122) at 37° C. in a 5% CO2 air incubator. Human fibroblasts were cultured at a density of 4×10^4 cells/ml. Tideglusib was provided by Dr. Ana Martínez (from The Center for Biological Research, CSIC). It was administered at 1.2 μM, whereas LiCI (Sigma-Aldrich, L7026) was used for comparative purposes at a final concentration of 10 mM. Tideglusib and LiCI were administered at the above referred concentrations to myotubes at eight days of differentiation, and tideglusib also to skin fibroblasts and to CD56-cells. Negative controls, in the case of tideglusib, were performed with DMSO (Fisher Scientific, BP-231). At 48 hours after drug administration, RNA and proteins were extracted. Protein collection from muscle samples and cell cultures, as well as Western blot procedure, were performed as previously described (Jaka et al., Expert Reviews in Molecular Medicine, 2017, 19, e2).

GSK3β [3] = assay: Western blot of GSK3β and P-GSK3β (Ser9) in human primary myotubes; format: cell-based; conditions: LGMDR1 patients' myotubes, day 8 of differentiation, 1.2 μM, 48 h
Method: To isolate the pure population of myoblasts and CD56-negative cells (CD56-), the protocol described previously (Jaka et al., Expert Reviews in Molecular Medicine, 2017, 19, e2) was used, using immunomagnetic separation based on the early presence of the surface marker CD56 (Miltenyi Biotec, 130-050-401). Myoblasts were cultured in proliferation medium (DMEM, M-199, Insulin, Glutamine and penicillin-streptomycin) with 10% FBS and growth factors at 37° C. in 5% CO2 air incubator. When myoblasts reached confluence, the FBS concentration was reduced to 2% and growth factors were removed from the medium, promoting fusion and production of myotubes. Tideglusib was provided by Dr. Ana Martínez (from The Center for Biological Research, CSIC). It was administered at 1.2 μM, whereas LiCI (Sigma-Aldrich, L7026) was used for comparative purposes at a final concentration of 10 mM. Tideglusib and LiCI were administered at the above referred concentrations to myotubes at eight days of differentiation, and tideglusib also to skin fibroblasts and to CD56-cells. Negative controls, in the case of tideglusib, were performed with DMSO (Fisher Scientific, BP-231). At 48 hours after drug administration, RNA and proteins were extracted. […]

mTOR = assay: Western blot of mTOR and P-mTOR in human primary myotubes; format: cell-based; conditions: LGMDR1 patient's myotubes, 1.2 μM, 48 h
Method: as §5, with “130-050-401). Myoblasts were cultured in proliferation medium (DMEM, M-199, Insulin, Glutamine and penicillin-streptomycin) with 10% FBS and growth factors at 37° C. in 5% CO2 air incubator. When myoblasts reached confluence, the FBS concentration was reduced to 2% and growth factors were removed from the medium, promoting fusion and production of myotubes.” for “130-050-401).”

[4] = LGMDR1 patient's myotubes, 1.2 μM
[5] = myotubes of LGMDR1 patient 09-25

## [Cl-].[Li+] [LiCl]
GSK3
  GSK3 inhibition: inhibit
  myoblast fusion: augment
β-catenin
  active β-catenin: increase
RPS6; myotubes of LGMDR1 patient 09-21, same sample without drug 1.5
  P-RPS6 (S235-S236), Western blot densitometry: 1.5
RPS6; myotubes of LGMDR1 patient 09-24, same sample without drug 3.5
  P-RPS6 (S235-S236), Western blot densitometry: 3
RPS6; myotubes of LGMDR1 patient 09-25, same sample without drug 2.8
  P-RPS6 (S235-S236), Western blot densitometry: 2.5
RPS6; myotubes of control 09-23, same sample without drug 3.0
  P-RPS6 (S235-S236), Western blot densitometry: 3.8
RPS6; myotubes of control 13-07, same sample without drug 3
  P-RPS6 (S235-S236), Western blot densitometry: 3
p70S6K; LiCl 10 mM, myotubes of LGMDR1 patient 09-21, same sample without drug 0.3
  P-p70S6K (T421-S424), Western blot densitometry: 0.5
p70S6K; LiCl 10 mM, myotubes of LGMDR1 patient 09-24, same sample without drug 1.8
  P-p70S6K (T421-S424), Western blot densitometry: 1.4
p70S6K; LiCl 10 mM, myotubes of LGMDR1 patient 09-25, same sample without drug 0.7
  P-p70S6K (T421-S424), Western blot densitometry: 0.65
p70S6K; LiCl 10 mM, myotubes of control 09-23, same sample without drug 0.8
  P-p70S6K (T421-S424), Western blot densitometry: 0.78
p70S6K; LiCl 10 mM, myotubes of control 13-07, same sample without drug 0.8
  P-p70S6K (T421-S424), Western blot densitometry: 0.7
p70S6K; control and LGMDR1 patient's myotubes, LiCl 10 mM
  proteins involved in the mTOR pathway and their phosphorylation forms (p70S6K, RPS6): did not provide any increase
FRBZ gene, β1D integrin
  expression of the FRBZ gene: lower levels
  β1D adult isoform of the integrin: higher levels
GSK3β [1]
  GSK3β inhibition: effective in inhibiting
  fatigue resistance in some muscles via NFAT activation: enhances

## O=c1sn(-c2cccc3ccccc23)c(=O)n1Cc1ccccc1 [Tideglusib, 4-benzyl2-naphthalen-1-yl-[1,2,4]thiadiazolidine-3,5-dione]
[2]
  expression of ANOS1 gene: increase
  expression of CAPN3 gene: increase
  expression of FOS gene: increase
  expression of ITGB1BP2 gene: increase
β-catenin; 1.2 μM
  total β-catenin expression: increase
β-catenin
  active β-catenin: increase
CD56-cells
  active form of β-catenin: no significant alteration
  amount of total β-catenin: no significant alteration
  mTOR: no differences
  phosphorylation of RPS6: no differences
  phosphorylation of p70S6K: no differences
RPS6; [4]
  phosphorylation of RPS6 (Ser235/Ser236): increased
RPS6; [5]
  P-RPS6 (S235-S236), protein expression value relative to the same sample without treatment: 1.6
RPS6; myotubes of control 13-05
  P-RPS6 (S235-S236), protein expression value relative to the same sample without treatment: 0.8
Integrin β1D and melusin
  integrin β1D protein: increase
  melusin protein: increase
Skin fibroblasts
  active form of β-catenin: did not show an increase
  phosphorylation of GSK3β (Ser9): did not show an increase
  phosphorylation of RPS6: decrease
  β-catenin: did not show an increase
GSK3β [3]
  amount of total GSK3β: increases
  phosphorylation of GSK3β (Ser9): increases
p70S6K; [4]
  expression of total p70S6K: increased
  phosphorylation of p70S6K (Thr389): increased
  phosphorylation of p70S6K (Thr421/Ser424): increased
p70S6K; control myotubes, 1.2 μM
  effect on p70S6K, its phosphorylation and P-RPS6: very slight
p70S6K; [5]
  P-p70S6K (T389), protein expression value relative to the same sample without treatment: 1.8
  P-p70S6K (T421-S424), protein expression value relative to the same sample without treatment: 1.8
p70S6K; myotubes of control 13-05
  P-p70S6K (T389), protein expression value relative to the same sample without treatment: 0.85
  P-p70S6K (T421-S424), protein expression value relative to the same sample without treatment: 0.8
mTOR
  phosphorylation of mTOR (Ser2448): significant increase
  phosphorylation of mTOR (Ser2481): significant increase
  total mTOR: no significant changes
